Holding throughout (test): DTP human tumour cell line panel, 48 h
Assay [1] concerns HS 578T breast.
Assay [2] deals with SR leukemia.
Assay [3] relates to UO-31 renal.
In assay [4] the test system is MALME-3M melanoma.
Assay [5] concerns SN12C renal.
Assay [6] deals with IGROV1 ovarian.
Assay [7] concerns UACC-257 melanoma.
The subject of assay [8] is CCRF-CEM leukemia.
In assay [9] the test system is OVCAR-4 ovarian.
The subject of assay [10] is SF-539 CNS.

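Following 48 hours of exposure in 96-well plates, responses at five concentrations were used to interpolate endpoints linearly. Here, GI50 denotes the concentration required for 50% inhibition of growth. TGI: total growth inhibition.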

Turning to `O=C(NCCCCCCNC(=O)OCc1ccc2c(Cl)cc(Cl)c(O)c2n1)OCc1ccc2c(Cl)cc(Cl)c(O)c2n1`, the GI50 in assay [1] was 1.46 µM; in assay [2], 0.357 µM; in [3], 0.619 µM; in assay [4] it was 1.42 µM; in assay [5], 0.957 µM; in assay [6], 0.57 µM. Further, the GI50 is 1.3 µM in assay [7], 0.311 µM in [8], 0.707 µM in [9] and 0.468 µM in assay [10]. Further, the TGI in assay [1] was found to be 5.68 µM; in [3], 1.95 µM; in assay [4], 2.77 µM; in [5] it was 2.25 µM; in assay [6], 1.78 µM; in assay [7], 2.77 µM. Besides, the values for the TGI in assay [9] and in assay [10] were 2.04 µM and 1.63 µM, respectively.

As to `COc1ccc2nc(-c3cc4c([nH]c5ccccc54)c(-c4ccc(F)c(F)c4)n3)[nH]c2c1`, the GI50 was 8.68 µM in assay [1]; 1.97 µM in [2]; 1.46 µM in assay [3]; 16.3 µM in assay [4]; 3.97 µM in assay [5]; 4.62 µM in [6]. The GI50 is 5.68 µM in assay [7], 2.36 µM in [8], 6.3 µM in assay [9] and 15.5 µM in assay [10]. The TGI amounted to 41.9 µM in [1]; 6.7 µM in [2]; 16.1 µM in assay [3]; 34.3 µM in assay [4]; 23.5 µM in [5]; 34.7 µM in assay [6]. Moreover, the TGI in [7] is 22 µM; in assay [8], 7.8 µM; in [9], 24 µM; in assay [10], 34.6 µM.

Regarding `Cc1nc2sc(C(=O)Nc3cccc(Br)c3)c(N)c2cc1C(O)c1ccccc1` (stereo not drawn), the concentration for 50% growth inhibition (GI50) is 0.424 µM in [1]; 0.301 µM in [2]; 1.82 µM in assay [3]; 0.761 µM in assay [4]; 0.894 µM in [5]; 1.94 µM in assay [6]. Moreover, the GI50 was 0.847 µM in assay [7], 0.413 µM in [8], 1.31 µM in assay [9] and 0.558 µM in assay [10]. Further, the TGI in assay [1] is 9.21 µM; in [2], more than 37.3 µM; in [3], 16.5 µM; in assay [4], 22.3 µM; in assay [5] it was 13.3 µM; in assay [6], 16.6 µM. For the same molecule, the TGI in assay [7] was 25.2 µM; in assay [8], more than 43.2 µM; in assay [9], 20.4 µM; in assay [10], 5.4 µM.

As for `Nc1nc(-c2ccc(Cl)cc2)cc(-c2ccccc2)c1-c1nc2ccccc2o1`, the GI50 in assay [1] is 12.7 µM; in assay [2] it was 3.37 µM; in assay [3], 10.3 µM; in assay [4], 10.3 µM; in assay [5], 3.05 µM; in [6], 12.5 µM. Besides, the GI50 in assay [7] is 15.3 µM; in assay [8], 4.2 µM; in assay [9], 11.5 µM; in assay [10] it was 16.1 µM. In addition, the TGI in [1] worked out at 40.9 µM; in assay [2] it was 8.97 µM; in [3] it was 26.4 µM; in [4], 33.4 µM; in assay [5], 9.29 µM; in assay [6], 49 µM. Moreover, the TGI in assay [7] stood at 35.3 µM; in assay [8] it was 33.6 µM; in assay [9], 28 µM; in assay [10], 32.2 µM.

As for `Cc1cc2nc(C(Cl)Cl)nc(-c3ccccc3)n2n1`, the GI50 was 2.65 µM in assay [1]; 2.3 µM in [2]; 5.02 µM in assay [3]; 9.11 µM in [4]; 24.7 µM in assay [5]; 5.24 µM in assay [6]. In addition, the GI50 was 7.35 µM in [7], 25.8 µM in assay [8], 2.19 µM in assay [9] and 3.94 µM in assay [10]. Further, the TGI in assay [1] is 14.5 µM; in [2], more than 100 µM; in assay [3], 21.6 µM; in [4], 28.1 µM; in [5] it was more than 100 µM; in assay [6] it was 35.1 µM. The TGI is 34.2 µM in assay [7], more than 100 µM in assay [8], 7.51 µM in assay [9] and 25 µM in assay [10].

On to `C=C(CN(C)C)C(=O)c1ccc(Oc2ccccc2)cc1`, for which the concentration for total growth inhibition (TGI) is 21.7 µM in assay [1]; 4.24 µM in assay [2]; 8.72 µM in [3]; 9.18 µM in assay [4]; 16.4 µM in assay [5]; 30.8 µM in assay [6]. In addition, the TGI in [7] worked out at 17.7 µM; in assay [8], 14.6 µM; in [9], 20.9 µM; in [10] it was 12.2 µM.

As usually defined, the GI50 is the concentration that inhibits growth by half. For orientation: TGI means the concentration giving total growth inhibition. High values mean less potent growth arrest, low ones more potent growth arrest.

Values taken from PubChem BioAssay (NCI).
